Measured values as given in patent publication US9060512B2, “Biocide compositions (III)” (Cognis IP Management GmbH, priority 2009, dated 2015).

Columns and labels:
[1] = tested on: Hemp sesbania (Sesbania exaltata=Bayer Code=SEBEX); test: Weed control with glyphosate IPA salt, optionally with adjuvant; assay type: in vivo
Description: (§1) Two weeds, Velvet leaf (Abutilion theophrasti=Bayer Code: ABUTH) and Hemp sesbania (Sesbania exaltata=Bayer Code=SEBEX) were treated with a suboptimum rate of 270 g a.e./ha glyphosate IPA salt, optionally in the presence of N,N-Dimethyl levulinic acid amide as an adjuvant (spray volume: 200 l/ha) with three replications over a period of 21 days. Assessments took place for SEBEX after 10 and for ABUTH 20 days after treatment. The efficacy of the biocide/adjuvant composition was determined against a control where the number of weeds in a similar untreated area was set to 0%.

[2] = tested on: Velvet leaf (Abutilion theophrasti=Bayer Code: ABUTH); test: as above; assay type: in vivo; settings: 270 g/ha glyphosate IPA salt, spray volume 200 l/ha, 20 days after treatment, untreated area = 0%
Description: as §1

Compound	weed control performance of glyphosate on addition of adjuvant ([1]; summary in words, SEBEX and ABUTH)	SEBEX Control (weed control) ([1]; 270 g/ha glyphosate IPA salt, spray volume 200 l/ha, 10 days after treatment, untreated area = 0%) [%-rel.]	ABUTH Control (weed control) [2] [%-rel.]
CC(=O)CCC(=O)N(C)C [Example 6, Levulinic acid dimethylamide]	improves the weed control performance of glyphosate significantly		
CC(C)N.O=C(O)CNCP(=O)(O)O [C3, glyphosate IPA salt]		50	82
